Source: US9814754B2, “Combinations with a backbone-cyclized peptide” (POLYPHOR AG, priority 2012, dated 2017)

Legend:
Type in all cases: in vivo
[1] = system: Pseudomonas aeruginosa clinical isolate PA18298; assay: Murine pneumonia model, compound 1 in combination with amikacin (Example 4); conditions: lung
Method: The efficacy and ED50 of the compound of formula (I) (“compound 1”) in combination with amikacin was determined against Pseudomonas aeruginosa clinical isolate PA18298 in a pneumonia model in mice. Colony counts in lung were determined at 20 hours post treatment.
Fresh overnight colonies of PA18298 from a 5% Horse Blood Agar plate were suspended in 0.9% sterile saline to approximately 10^8 CFU/ml and further diluted to approximately 5×10^7 CFU/ml. Female mice (DBA/2, outbred, 18-22 g, Charles River) were anesthetized with 0.1 ml of Zoletil and inoculated via the nose with a pipette with 0.05 ml of the bacteria suspension containing approximately 10^6 CFU. 4 hours after inoculation, the mice were treated orally with 45 μl neurophen (20 mg ibuprofen/ml corresponding to approximately 30 mg/kg) as pain relief.
175 mg of amikacin (Sigma) were dissolved in 5 ml 0.9% sterile saline to a concentration of 35 mg/ml and further diluted with saline to 3 mg/ml. The mice were treated subcutaneously with 0.2 ml in the neck region with a single dose at 3 hours post infection corresponding to 30 mg/kg on the basis of a mean animal weight of 20 g.
One vial containing 10 mg of active compound 1 was dissolved in 2 ml 0.9% sterile saline to a concentration of 5 mg/ml and further diluted with saline […], 1, 0.55, 0.275 and 0.137 mg/ml. The mice were treated subcutaneously with 0.2 ml in the neck region with a single dose at 4 hours post infection with a dose calculation based on a mean animal weight of 20 g. Colistin was used as a control in the same manner with a fixed dose of 20 mg/kg.
(§1) Colony counts were determined post inoculation at 4 hours (untreated mice) and 24 hours (treated and vehicle-only treated mice). Immediately after the mice were sacrificed, the lungs were collected and frozen at −20° C. After thawing, the organs were homogenized in 1 ml 0.9% saline. Each sample was then 10 fold diluted in saline and 20 μl spots were applied on blood agar plates. All agar plates were incubated 18-24 hours at 35° C. in ambient air.
The CFU/ml in the inoculum was determined to 7.4 log10 CFU/ml corresponding to 6.17 log10 CFU/mouse.
At 4 hours after inoculation the mean log 10 CFU/lung was 5.06 and the CFU level declined to 1.55 mean log 10 CFU/lung after 24 hours in the vehicle group.

[2] = system: Pseudomonas aeruginosa clinical isolate PAX11045; assay: Murine pneumonia model, compound 1 in combination with azithromycin (Example 2); conditions: 50 mg/kg alone, lung
Method: The efficacy and ED50 of the compound of formula (I) (“compound 1”) in combination with azithromycin was determined against Pseudomonas aeruginosa clinical isolate PAX11045 in a pneumonia model in mice. Colony counts in lung were determined at 20 hours post treatment.
Fresh overnight colonies of PAX11045 from a 5% Horse Blood Agar plate were suspended in 0.9% sterile saline to approximately 10^8 CFU/ml and further diluted to approximately 5×10^7 CFU/ml. Female mice (DBA/2, outbred, 17-23 g, Charles River) were anesthetized with 0.1 ml of Zoletil and inoculated via the nose with a pipette with 0.05 ml of the bacteria suspension containing approximately 10^6 CFU. 4 hours after inoculation, the mice were treated orally with 45 μl neurophen (20 mg ibuprofen/ml corresponding to approximately 30 mg/kg) as pain relief.
480 mg of azithromycin (Zitromax™, Pfizer) were dissolved in 4.8 ml 0.9% sterile saline to a concentration of 100 mg/ml and further diluted with saline to 5 mg/ml. The mice were treated subcutaneously with 0.2 ml in the neck region with a single dose at 3 hours post infection corresponding to 50 mg/kg on the basis of a mean animal weight of 20 g.
(§2) The mice were treated subcutaneously with 0.2 ml in the neck region with a single dose at 4 hours post infection with a dose calculation based on a mean animal weight of 20 g.
as §1

[3] = system: Pseudomonas aeruginosa clinical isolate PAX11045; assay: Murine pneumonia model, compound 1 in combination with ertapenem (Example 1); conditions: 50 mg/kg alone, lung, p<0.001
Method: The efficacy and ED50 of the compound of formula (I) (“compound 1”) in combination with ertapenem was determined against Pseudomonas aeruginosa clinical isolate PAX11045 in a pneumonia model in mice. Colony counts in lung were determined at 20 hours post treatment.
Fresh overnight colonies of PAX11045 from a 5% Horse Blood Agar plate were suspended in 0.9% sterile saline to approximately 10^8 CFU/ml and further diluted to approximately 5×10^7 CFU/ml. Female mice (DBA/2, outbred, 18-22 g, Charles River) were anesthetized with 0.1 ml of Zoletil and inoculated via the nose with a pipette with 0.05 ml of the bacteria suspension containing approximately 10^6 CFU. 4 hours after inoculation, the mice were treated orally with 45 μl neurophen (20 mg ibuprofen/ml corresponding to approximately 30 mg/kg) as pain relief.
1 g of ertapenem (Invanz™, MSD Denmark Aps) was dissolved in 10 ml 0.9% sterile saline to a concentration of 100 mg/ml and further diluted with saline to 5 mg/ml. The mice were treated subcutaneously with 0.2 ml in the neck region with a single dose at 3 hours post infection corresponding to 50 mg/kg on the basis of a mean animal weight of 20 g.
as §2, §1
The CFU/ml in the inoculum was determined to 7.65 log10 CFU/ml corresponding to 6.35 log10 CFU/mouse.
At 4 hours after infection the mean log10 CFU/lung was 5.14 and the CFU level remained at a similar level after 24 hours in the vehicle-only group.

[4] = system: Pseudomonas aeruginosa clinical isolate PA18298; assay: Murine pneumonia model, compound 1 alone (Reference 3); conditions: 20 mg/kg, positive control, lungs, p<0.001
Method: Efficacy in Murine Pneumonia Model Against Pseudomonas aeruginosa PA18298 and Estimation of ED50
The efficacy and ED50 of the compound of formula (I) (“compound 1”) was determined against Pseudomonas aeruginosa clinical isolate PA18298 in a pneumonia model in mice. Colony counts in the lungs were determined at 18-20 hours post treatment.
Fresh overnight colonies of PA18298 from a 5% Horse Blood Agar plate were suspended in 0.9% sterile saline to approximately 10^8 CFU/ml and further diluted to approximately 4×10^7 CFU/ml. Female mice (DBA/2, outbred, 18-22 g, Charles River) were anesthetized with 0.1 ml of Zoletil (tiletamine+zolazepam) and inoculated via the nose with a pipette with 0.05 ml of the bacteria suspension containing approximately 1×10^6 CFU. 4 hours after inoculation, the mice were treated orally with 45 μl neurophen (20 mg ibuprofen/ml corresponding to approximately 30 mg/kg) as pain relief.
One vial containing 10 mg of active compound 1 was dissolved in 2 ml 0.9% sterile saline to a concentration of 5 mg/ml and was further diluted with saline to 2, 1, 0.75, 0.55, 0.275 and 0.137 mg/ml. The mice were treated subcutaneously with 0.2 ml in the neck region with a single dose at 4 hours post infection with a dose calculation based on a mean animal weight of 20 g. As positive control colistin was used in the same manner with a fixed dose of 20 mg/kg.
Colony counts were determined post inoculation at 4 hours (untreated mice) and 24 hours (treated and vehicle-only treated mice). Immediately after the mice were sacrificed, the lungs were collected and frozen at −20° C. After thawing, the organs were homogenized in 1 ml 0.9% saline. Each sample was then 10-fold diluted in saline and 20 μl spots were applied on blood agar plates. All agar plates were incubated 18-48 hours at 35° C. in ambient air.
The CFU/ml in the inoculum was determined to 7.49 log10 CFU/ml corresponding to 6.20 log10 CFU/mouse.
At 4 hours after infection the mean log10 CFU/lung was 5.05 and the CFU level declined to 2.62 at 24 hours post inoculation in the vehicle-only group.

[5] = system: Pseudomonas aeruginosa clinical isolate PA9349; assay: Murine pneumonia model, compound 1 in combination with ciprofloxacin (Example 3); conditions: colistin 20 mg/kg alone, lung
Method: Colony counts in lung were determined at 20 hours post treatment.
Fresh overnight colonies of PA9349 from a 5% Horse Blood Agar plate were suspended in 0.9% sterile saline to approximately 10^8 CFU/ml and further diluted to approximately 10^7 CFU/ml. Female mice (C57BL/6 […], outbred, 20-25 g, Hellenic Pasteur Institute) were anesthetized with ether and inoculated via the nose with a pipette with 0.05 ml of the bacteria suspension containing approximately 10^6 CFU. After inoculation, mice were treated with paracetamol suppositories as a pain relief.
The mice were treated subcutaneously with 0.2 ml in the neck region with a single dose at 3 hours post infection corresponding to 20 mg/kg on the basis of a mean animal weight of 20 g.
1 vial was further diluted with saline to 1, 0.8 and 0.4 mg/ml. The mice were treated subcutaneously with 0.25 ml (25 mg/kg dose) or 0.2 ml (for all other doses) in the neck region with a single dose at 4 hours post infection with a dose calculation based on a mean animal weight of 20 g.
as §1

NCC[C@H](O)C(=O)N[C@@H]1C[C@H](N)[C@@H](O[C@H]2O[C@H](CN)[C@@H](O)[C@H](O)[C@H]2O)[C@H](O)[C@H]1O[C@H]1O[C@H](CO)[C@@H](O)[C@H](N)[C@H]1O [amikacin, reference compound]
effect on bacterial loads ([1]; amikacin 30 mg/kg alone): some effects on reducing the bacterial loads

CC[C@H]1OC(=O)[C@H](C)[C@@H](O[C@H]2C[C@@](C)(OC)[C@@H](O)[C@H](C)O2)[C@H](C)[C@@H](O[C@@H]2O[C@H](C)C[C@H](N(C)C)[C@H]2O)[C@](C)(O)C[C@@H](C)CN(C)[C@H](C)[C@@H](O)[C@]1(C)O [azithromycin, reference compound]
effect on bacterial loads [2]: no effect on the bacterial loads

C[C@@H](O)[C@H]1C(=O)N2C(C(=O)O)=C(S[C@@H]3CN[C@H](C(=O)Nc4cccc(C(=O)O)c4)C3)[C@H](C)[C@H]12 [ertapenem, reference compound]
effect on bacterial loads [3]: significant effect on reducing the bacterial loads

colistin [reference compound]
effect on bacterial loads [4]: some effect on reducing the bacterial loads
effect on bacterial loads [5]: no or only slight effects on the bacterial loads
effect on bacterial loads ([1]; colistin 20 mg/kg, control): some effects on reducing the bacterial loads
